We go through one substance from PMC10819887, “Production of AFB1 High-Specificity Monoclonal Antibody by Three-Stage Screening Combined with the De-Homologation of Antibodies and the Development of High-Throughput icELISA” (Toxins, 2023).

Values joined by “and” are separate entries in the source; they are usually repeats but may differ in a detail not shown here. Identical values can stand only once.

One assay concerns ZFG8 monoclonal antibody. The experiment in a line: icELISA working-condition optimization and standard curves (ZFG8, AFB1-BSA). It is filed as binding, mouse.
In another assay the test system is anti-AFB1 mAb (ZFG8). It is filed as binding, mouse.

Usually IC50 stands for the concentration needed to halve the response being measured. In the case of aflatoxin B1 [AFB1], in the assay with ZFG8 monoclonal antibody, the IC20-IC80 was 0.04197 to 0.6299 ng/mL and 0.03329 to 0.9399 ng/mL; the “IC20-IC80 (linear detection range)” value was in the range of 0.0422 to 1.293 ng/mL. In addition, the IC50 with ZFG8 monoclonal antibody (pH 7.4) turned out to be 0.1811 ng/mL. In the assay with anti-AFB1 mAb (ZFG8), the “Cross-Reactivity (%)” value is listed as 100% and the “IC50” value is listed as 0.3162 ng/mL.
